Reference: US5380710A, “Pharmaceutical compositions containing ACTH (1-24) for the therapy of shock conditions and respiratory and cardiocirculatory insufficiences” (priority 1985, dated 1995)
Counter-ions that a name gives are not always drawn.

Tested on: severe hypotension induced by bleeding (hypovolemic shock), intact rats
Test: Hypovolemic shock by bleeding in intact rats: mean arterial pressure and survival
Type: in vivo, Wistar rats
Procedure: Intact and adrenalectomized female Wistar rats (Nossan, Correzzano, Milano, Italy) weighing 250 to 300 g, and intact male Beagle dogs (S. Morini, S. Polo d'Enza, Reggio Emilia, Italy) weighing 10 to 12 kg were used. Following anesthetization and heparinization a common carotid artery and an iliac vein were cannulated in rats, while in dogs a femoral artery and vein were used. Arterial blood pressure was recorded by means of a pressure transducer (Statham P23 Db) connected to a polygraph (Battaglia-Rangoni, Bologna, Italy). In some rats, trachea was cannulated and respiration was recorded by means of a transducer (Statham 10272) connected to the same polygraph. Hypovolemic shock was produced by intermittently withdrawing blood from the venous catheter until mean arterial pressure fell to 16-30 mm Hg. In rats, the volume of blood removed was 2-2.5 ml per 100 g of body weight and approximated to, or even exceeded, 50% of the estimated total blood volume; in dogs, the volume of blood removed was 50-60 ml per kg of body weight. Following bleeding and mean blood pressure stabilization in the range of 16-30 mm Hg, animals were given intravenous bolus of either ACTH (1-24) or naloxone.HCl.

## C=CCN1CC[C@]23c4c5ccc(O)c4O[C@H]2C(=O)CC[C@@]3(O)[C@H]1C5 [Naloxone.HCl, naloxone.HCl]
Intact rats (5), Naloxone.HCl 1 μg/kg i.v. group, baseline before treatment, m ± S.E.
  Mean arterial pressure before bleeding: 64,60 ± 4,70 mm Hg
Intact rats (5), Naloxone.HCl 1 μg/kg i.v. group, before treatment, m ± S.E.
  Mean arterial pressure after bleeding: 22,00 ± 3,15 mm Hg
Intact rats (5), bled, 1 μg/kg i.v.
  No. of deaths 60 min. after treatment: 0
Intact rats (5), bled, 1 μg/kg i.v., m ± S.E.
  Mean arterial pressure 15-30 min. after treatment: 58,20 ± 6,12 mm Hg
rats, bled, 1 mg/kg i.v., within 30 minutes
  Effect on blood pressure after bleeding: completely restored blood pressure
